{"source": "paper PMC9959918", "about": "(2023)", "key": {"[1]": {"test_system": "CPG-c-myc (DNA, G4) TGGGGAGGGTGGGGAGGGTGGGGAAGGTGGGGA", "test": "G4-CPG affinity assay, UV", "details": "50 mM KCl, 10% DMSO, 10% ethanol, 60 μM compound, error ±2%"}, "[2]": {"test_system": "CPG-ds27 (DNA, hairpin) CGCGAATTCGCGTTTCGCGAATTCGCG", "test": "G4-CPG affinity assay, UV", "details": "50 mM KCl, 10% DMSO, 10% ethanol, 60 μM compound, error ±2%"}, "[3]": {"test_system": "CPG-tel26 (DNA, G4) TTAGGGTTAGGGTTAGGGTTAGGGTT", "test": "G4-CPG affinity assay, UV", "details": "50 mM KCl, 10% DMSO, 10% ethanol, 60 μM compound, error ±2%"}, "[4]": {"test_system": "ds12 (Dickerson dodecamer) (DNA, duplex) CGCGAATTCGCG", "test": "fluorescence titration, 2 μM ligand, equivalent-sites fit", "details": "5 mM KCl, 5 mM KH2PO4; 5% DMSO, pH 7, 20 °C"}, "[5]": {"test_system": "tel26 (DNA, G4) TTAGGGTTAGGGTTAGGGTTAGGGTT", "test": "fluorescence titration, 2 μM ligand, equivalent-sites fit", "details": "5 mM KCl, 5 mM KH2PO4; 5% DMSO, pH 7, 20 °C"}, "[6]": {"test_system": "Pu22T14T23 (Pu22) (DNA, G4) TGAGGGTGGGTAGGGTGGGTAA", "test": "fluorescence titration, 2 μM ligand, equivalent-sites fit", "details": "5 mM KCl, 5 mM KH2PO4; 5% DMSO, pH 7, 20 °C"}, "[7]": {"test_system": "ds12 (Dickerson dodecamer) (DNA, duplex) CGCGAATTCGCG", "test": "CD melting, 253 nm", "details": "5 mM KCl, 5 mM KH2PO4; 5% DMSO, pH 7; 2 μM DNA, 20 μM compound (10 equiv.); Tm ± 1"}, "[8]": {"test_system": "tel26 (DNA, G4) TTAGGGTTAGGGTTAGGGTTAGGGTT", "test": "CD melting, 290 nm", "details": "5 mM KCl, 5 mM KH2PO4; 5% DMSO, pH 7; 2 μM DNA, 20 μM compound (10 equiv.); Tm ± 1"}, "[9]": {"test_system": "Pu22T14T23 (Pu22) (DNA, G4) TGAGGGTGGGTAGGGTGGGTAA", "test": "CD melting, 265 nm", "details": "5 mM KCl, 5 mM KH2PO4; 5% DMSO, pH 7; 2 μM DNA, 20 μM compound (10 equiv.); Tm ± 1"}}}
{"smiles": "CC1(C)C=Cc2c(ccc3c2O[C@@H]2COc4cc5c(cc4[C@@H]2C3=O)OCO5)O1", "values": [{"measurement": "Bound Ligand", "setting": "[1]; nude CPG 8%", "value": 8, "unit": "%"}, {"measurement": "Bound Ligand", "setting": "[2]; nude CPG 8%", "value": 8, "unit": "%"}, {"measurement": "Bound Ligand", "setting": "[3]; nude CPG 8%", "value": 8, "unit": "%"}]}
{"smiles": "COc1cc2c(cc1OC)-c1c(OC)c(OC)cc3c1[C@H](C2)N(C)CC3", "values": [{"measurement": "Bound Ligand", "setting": "[1]; nude CPG 0%", "value": 1, "unit": "%"}, {"measurement": "Bound Ligand", "setting": "[2]; nude CPG 0%", "value": 0, "unit": "%"}, {"measurement": "Bound Ligand", "setting": "[3]; nude CPG 0%", "value": 2, "unit": "%"}]}
{"smiles": "COc1cc2c(cc1OC)-c1c3c(cc4c1[C@H](C2)N(C)CC4)OCO3", "values": [{"measurement": "Bound Ligand", "setting": "[1]; nude CPG 0%", "value": 47, "unit": "%"}, {"measurement": "Bound Ligand", "setting": "[2]; nude CPG 0%", "value": 30, "unit": "%"}, {"measurement": "Bound Ligand", "setting": "[3]; nude CPG 0%", "value": 67, "unit": "%"}, {"measurement": "Kb", "setting": "[4]", "value": "(3.2 ± 0.4) × 10^5 M^−1"}, {"measurement": "Kb", "setting": "[5]", "value": "(2.8 ± 1.2) × 10^6 M^−1"}, {"measurement": "Kb", "setting": "[6]", "value": "(0.8 ± 0.5) × 10^6 M^−1"}, {"measurement": "ΔTm", "setting": "[7]", "value": "+1 °C"}, {"measurement": "ΔTm", "setting": "[8]", "value": "+3 °C"}, {"measurement": "ΔTm", "setting": "[9]", "value": "+5 °C"}]}
{"smiles": "COc1cc2c(cc1OC)[C@@H]1C(=O)c3ccc4c(c3O[C@@H]1CO2)C=CC(C)(C)O4", "values": [{"measurement": "Bound Ligand", "setting": "[1]; nude CPG 0%", "value": 0, "unit": "%"}, {"measurement": "Bound Ligand", "setting": "[2]; nude CPG 0%", "value": 0, "unit": "%"}, {"measurement": "Bound Ligand", "setting": "[3]; nude CPG 0%", "value": 0, "unit": "%"}]}
{"smiles": "COc1ccc2c(c1OC)CN1CCc3cc4c(cc3[C@@H]1C2)OCO4", "values": [{"measurement": "Bound Ligand", "setting": "[2]; nude CPG 21%", "value": 4, "unit": "%"}]}
